Source: patent publication US10092540B2, “Method of treatment of a mucopolysaccharidosis” (INVENTIVA, priority 2013, dated 2018)

What was measured:
male C57B16/J mice [1] = experiment: Urinary sulfated GAG levels in tilorone-induced mucopolysaccharidosis mouse model; format: in vivo
Procedure: (§1) The effect of odiparcil on GAG storage was assessed in a model of mucopolysaccharidosis induced by Tilorone. Chronic administration of tilorone induces GAGs accumulation in various organs including liver, spleen, and kidney (Fischer et al. 1996, 315 (Pt 2):369-375; Prokopek 1991, 42:2187-2191). Tilorone (50 mg/kg/day) was administered via drinking water and odiparcil at 30 or 100 mg/kg/day (corresponding to 15 mg/kg and 50 mg/kg given bid, respectively) was given by oral gavage. Tilorone, odiparcil or vehicle were administered to male C57B16/J mice for 28 days.
After 21 days of treatment, urine were collected over a 24 hour period by placing the animal in diuresis/metabolic cages. The activity of odiparcil was assessed by quantifying total sulfated GAG levels in the collected urine. After a 10 to 20 fold dilution of the urine in water, sulfated glycosaminoglycan concentrations were measured using Blyscan™ assay from Biocolor (UK) following the manufacturer's instructions. Creatinine levels were also assessed on undiluted urine samples, using the CREATININE (Jaffé) kit (ref 981811) from ThermoFisher according to the manufacturer's instructions. Urinary sulfated GAG levels were normalized by creatinine levels. The data were analyzed statistically by one-way analysis of variance followed by a Tukey's test between all groups: ***: p<0.001 for vehicle/vehicle, and $$$: p<0.001 for tilorone/vehicle.

male C57B16/J mice [2] = experiment: Liver total sulfated GAG levels in tilorone-induced mucopolysaccharidosis mouse model; format: in vivo
Procedure: as §1
At the end of the study period, animals were anesthetized and sacrificed. The liver of each animal was then collected, rinsed in physiological serum, blotted in absorbent paper and weighted. It was then cut in pieces and cooled by snap-freezing in liquid nitrogen before being stored at −80° C. The activity of odiparcil was assessed by quantifying total sulfated glycosaminoglycan (GAG) levels in the liver. Sulfated glycosaminoglycan concentration was measured using the Blyscan™ assay from Biocolor (UK) following the manufacturer's instructions. The data were statistically analyzed by one-way analysis of variance followed by a Tukey's test between all groups: ***: p<0.001 vs vehicle/vehicle, and $: p<0.05 vs tilorone/vehicle.

[3] = test system: Bovine aortic endothelial cells (ECACC 92010601); experiment: 35S-labeled GAG level in culture supernatant of bovine aortic endothelial cells; format: cell-based
Procedure: Bovine aortic endothelial cells (ECACC 92010601), cultured in 6-well plates, were incubated for 24 h in the presence of ^35S sodium sulfate (10 μci/ml) and of odiparcil solubilized in DMSO at various concentrations (1-10 μM; 0.1% final concentration of DMSO). The culture supernatants were recovered and the cell layers were rinsed with phosphate buffer (PBS). The culture supernatants and the rinsing solutions were combined in tubes. A solution of unlabeled dermatan sulfate (200 μg) was then added in order to serve as an entraining agent. The unincorporated ^35S was then removed by gel filtration on Sephadex G25 columns, the GAGs being eluted in the column exclusion fraction (V0). […] After centrifugation, the alcoholic precipitates were redissolved in 0.9% sodium chloride and then the radioactivity was measured on an aliquot fraction after addition of scintillation fluid in counting vials.
In order to type the GAGs produced in the supernatants from cells in culture, the redissolved alcoholic precipitates were treated with chondroitinase ABC (Proteus vulgaris) in a proportion of 0.5 mU/μL, for 3 h at 37° C. […] After centrifugation, the alcoholic precipitates were redissolved in 0.9% sodium chloride and then the radioactivity was measured on an aliquot fraction after addition of scintillation fluid in counting vials. […]

[4] = test system: GM00034B fibroblast cells, isolated from an MPS I patient; experiment: Intracellular chondroitin sulfate content (immunofluorescence) in fibroblasts from an MPS I patient; format: cell-based, human; conditions: 72 h
Procedure: (§2) Human dermal fibroblasts (GM00034B fibroblast cells, isolated from an MPS I patient and GM00031 fibroblast cells, isolated from an unaffected donor) were obtained from the Coriell Institute for Medical Research. Cells were cultured in 96-well plates for 24 h. The culture medium was then replaced with culture medium containing or not containing (vehicle) odiparcil at various concentrations (0.03, 0.1, 0.3, 1, 3, or 10 μM), and then the cells were incubated for 72 h. After incubation, culture media were discarded and the cells were rinsed with PBS, then fixed in PFA 4%. A part of the wells was then incubated for 2 hours at 37° C. with an enzymatic solution of chondroitinase ABC (CSase). After 2 hours of digestion with CSase ABC buffers were discarded, then the cells were rinsed with PBS and permeabilized with PBS-Triton 0.1%. The cells were then labeled using a primary anti-chondroitin sulfate antibody.

[5] = test system: GM03181 and GM00615 fibroblasts isolated from two MPS II patients; experiment: CS, DS and HS content by UPLC MSMS in MPS II fibroblasts; format: cell-based, human; conditions: 10 μM, 72 h, FIG. 4
Procedure: (§3) Human dermal fibroblasts (GM00034B and GM01391 fibroblast cells, isolated from two MPS I patients and GM03181 and GM00615 fibroblasts isolated from two MPS II patients) were obtained from the Coriell Institute for Medical Research. Cells were cultured in T25-flask for 24 h. The culture medium was then replaced with culture medium containing or not containing (vehicle) odiparcil at 10 μM, and then the cells were incubated for 72 h. After incubation, culture media were discarded and the cells were rinsed with PBS, then scrapped in PBS. Cells were then collected by centrifugation and cell pellets were frozen until further analysis. Quantitation of Heparan sulfate (HS), Dermatan sulfate (DS) and Chondroitin sulfate (CS) were performed using UPLC MSMS using a method adapted from method published in Zhang et al. 2015. Glycosaminoglycan values are expressed as mean+SD in μg GAG species per milligram protein.

[6] = test system: Normal human dermal fibroblasts (BIOAlternatives PF2); experiment: Total GAG synthesis (3H-glucosamine incorporation) by normal human dermal fibroblasts; format: cell-based; conditions: 10 μM, 72 h
Procedure: Normal human dermal fibroblasts (BIOAlternatives PF2) were cultured in 96-well plates for 24 h. The culture medium was then replaced with culture medium containing or not containing (control) odiparcil at various concentrations (1 μM, 3 μM, 10 μM) or the TGF-β reference at 10 ng/ml (positive control), and then the cells were incubated for 72 h with addition of the ^3H-glucosamine radioactive label for evaluating total GAG synthesis. At the end of the incubation, a chaotropic buffer was added to the wells of the culture plates in order to lyse the fibroblasts. The total GAGs of the cell lysates were then purified by ion exchange chromatography (Q-Sepharose column). The radioactivity incorporated into the anionic fractions was measured by liquid scintillation.

New Zealand Rabbits = experiment: Plasma GAG level and disaccharide composition in rabbits after oral administration; format: in vivo, rabbit; conditions: 400 mg/kg oral
Procedure: Odiparcil was administered Orally to New Zealand Rabbits at the Dose of 400 mg/kg. 4 h after the administration, the animals were anesthetized and blood samples were taken on citrate tubes after catherization of the carotid artery. After centrifugation, the plasma was removed and frozen. The plasma GAGs were isolated after digestion of the proteins with Pronase E, for 48 h at 50° C. The proteins and the protein residues were precipitated by adding trichloroacetic acid and incubated overnight at 4° C. After centrifugation, the supernatants were collected, and then dialyzed against 100 volumes of phosphate buffer, for 48 h at 4° C. A solution of cetylpyridinium chloride (0.1% final concentration) was added to the dialysates in order to precipitate the GAGs, for 24 h at ambient temperature. The samples were then centrifuged and the supernatant was removed. The precipitate obtained was redissolved in 2M sodium chloride and the GAGs were precipitated with 5 volumes of 95% ethanol. After centrifugation, the alcoholic precipitates were redissolved in 0.9% sodium chloride and desalified on a Sephadex G25 column (PD10).
The plasma GAGs extracted were quantified by assaying the uronic acid content, modified Bitter and Muir carbazole method. The qualitative analysis of the plasma GAG extracts was carried out by HPLC of the disaccharides obtained after enzymatic digestion with chrondroitinase ABC from Proteus vulgaris and chrondroitinase AC from Arthrobacter aurescens.

[7] = test system: GM00031 fibroblast cells, isolated from an unaffected donor; experiment: Intracellular chondroitin sulfate content (immunofluorescence) in control fibroblasts; format: cell-based, human; conditions: 72 h
Procedure: as §2

[8] = test system: GM00034B and GM01391 fibroblast cells, isolated from two MPS I patients; experiment: CS, DS and HS content by UPLC MSMS in MPS I fibroblasts; format: cell-based, human; conditions: 10 μM, 72 h, FIG. 4
Procedure: as §3

[9] = tilorone 50 mg/kg/day via drinking water, vs vehicle/vehicle

In the case of `Cc1cc(=O)oc2cc(O[C@@H]3SC[C@@H](O)[C@H](O)[C@H]3O)ccc12` [Odiparcil, 4-methyl-2-oxo-2H-1-benzopyran-7-yl-5-thio-β-D-xylopyranoside], the “statistical significance of effect on urinary sulfated GAG levels vs tilorone/vehicle” value (male C57B16/J mice [1]; odiparcil 30 and 100 mg/kg/day, p<0.001) was “statistically significant at both tested doses”, the “sulfated GAG levels in urine (normalized by creatinine)” value (male C57B16/J mice [1]; odiparcil 30 or 100 mg/kg/day oral gavage with tilorone, urine after 21 days, FIG. 5) was “increased sulfated GAG levels in urine in a dose-dependent manner” and the “statistical significance of effect on total GAG liver content vs tilorone/vehicle” value (male C57B16/J mice [2]; odiparcil 100 mg/kg/day, p<0.05) was “statistically significant”. The “tilorone-induced accumulation of liver total GAG levels” value (male C57B16/J mice [2]; odiparcil 30 or 100 mg/kg/day oral gavage with tilorone, end of study, FIG. 6) was “decreased”, the “type of GAGs synthesized by the cells in culture (enzymatic digestions)” value ([3]; chondroitinase ABC / heparinase II digestion) was “predominantly of chondroitin sulfate type” and the “level of 35S-labeled GAGs in the culture supernatant” value ([3]; odiparcil 1-10 μM, 24 h, FIG. 1) was “increases, in a dose-dependent manner”. The “intracellular chondroitin sulfate (CS) content” value ([4]; 0.03-10 μM, FIG. 3) was “inhibited, in a dose-dependent manner”, the “IC50 for reduction of intracellular CS” value [4] was “in the μM range” and the “extent of reduction of intracellular CS” value [4] was “complete reduction”. For the same molecule, the “chondroitin sulfate (CS) content” value [5] was “inhibited”, the “dermatan sulfate (DS) content” value [5] was “inhibited” and the “heparan sulfate (HS) content” value [5] was “inhibited”. For the same molecule, the “total GAG synthesis (dose dependence)” value ([6]; 1 μM, 3 μM, FIG. 2) was “stimulates, in a dose-dependent manner”, the “stimulation of total GAG synthesis vs control” value [6] was “+94%” and the “Δdi-0S (%) nonsulfated disaccharides” value (New Zealand Rabbits; rabbit plasma GAGs, 4 h) was 18.6%. For the same molecule, the “Δdi-4S (%) 4-sulfated disaccharides” value (New Zealand Rabbits; rabbit plasma GAGs, 4 h) was 26%, the “Δdi-4S DS (%) 4-sulfated disaccharides (dermatan sulfate component)” value (New Zealand Rabbits; rabbit plasma GAGs, 4 h) was 20.5% and the “Δdi-6S (%) 6-sulfated disaccharides (galactosamine-6-sulfate component)” value (New Zealand Rabbits; rabbit plasma GAGs, 4 h) was 30.8%. For the same molecule, the “Δdi-UA2S (%) 2UA-sulfated disaccharides” value (New Zealand Rabbits; rabbit plasma GAGs, 4 h) was 4.1%, the “factor of increase of plasma GAG level compared with control animals” value (New Zealand Rabbits; rabbit, 4 h) was 5 and the “μg UA/ml plasma (plasma GAG level via uronic acid content)” value (New Zealand Rabbits; rabbit, 4 h after administration) was 11.4 μg UA/ml. The “intracellular chondroitin sulfate (CS) content” value ([7]; 0.03-10 μM, FIG. 3) was “inhibited, in a dose-dependent manner”, the “IC50 for reduction of intracellular CS” value [7] was “in the μM range” and the “extent of reduction of intracellular CS” value [7] was “complete reduction”. The “chondroitin sulfate (CS) content” value [8] was “inhibited”, the “dermatan sulfate (DS) content” value [8] was “inhibited” and the “heparan sulfate (HS) content” value [8] was “inhibited”.

`CCN(CC)CCOc1ccc2c(c1)C(=O)c1cc(OCCN(CC)CC)ccc1-2` [Tilorone, reference compound] was tested, and the “GAG levels in urine” value (male C57B16/J mice [1]; [9]) was “increased” and the “GAG levels in the liver” value (male C57B16/J mice [2]; [9]) was “increased”.
